Measurements reported in publication PMC10683014, “Amino Acids as Chelating Ligands for Platinum: Enhanced Stability in an Aqueous Environment Promoted by Biocompatible Molecules” (Journal of Medicinal Chemistry, 2023).

Legend:
[1] = tested on: MCF-7 breast cancer cell line; test: MTT metabolic activity (cytotoxicity) assay, MCF-7; assay type: cell-based; details: 72 h incubation
Protocol: (§1) In order to determine the antitumor activity of the platinum complexes, in vitro cytotoxicity tests were performed. Compounds 1–4 were tested with cisplatin as a reference on the breast cancer cell line MCF-7 and the colon carcinoma cell line HT-29. Complexes 1, 4, and 5, as well as the ligand (but-3-en-1-yl 2-acetoxybenzoate, 6) were additionally evaluated on MDA-MB-231 cells and A2780cis cells, also using cisplatin as a reference. The metabolic activity as an indicator of cytotoxicity was determined by a classical 3-(4,5-dimethylthiazol-2-yl)-2,5-diphenyltetrazoliumbromid (MTT) assay.
(§2) The cell lines A2780cis and MDA-MB-231 were cultivated in RPMI 1640 without phenol red (PAN Biotech, Aidenbach, Germany), supplemented with L-glutamine (2 mM), 100 μg/mL penicillin, 100 μg/mL streptomycin, and FCS (10%) (all from Invitrogen Corporation, Gibco, Paisley, Scotland) at 37 °C in a 5% CO2/95% air atmosphere, and passaged twice per week. To maintain resistance, A2780cis cells were incubated every second week with cisplatin (1 μM). The cell lines MCF-7 and HT-29 were grown in DMEM without phenol red (PAN Biotech, Aidenbach, Germany), containing L-glutamine, 100 μg/mL penicillin, 100 μg/mL streptomycin, sodium pyruvate ([…]) (PAN Biotech), and FCS (10%) under the same conditions as the other cell lines.
(§3) The exponentially growing cell lines were seeded at a density of 2000 cells/well for MCF-7 cells, 4000 cells/well for HT-29 cells and MDA-MB-231 cells, and 8000 cells/well for A2780cis cells, respectively, into clear flat-bottom 96-well plates in triplicates. Following 24 h of incubation for adherence at 37 °C in a humidified atmosphere (5% CO2/95% air), the compounds were added to reach the desired concentrations between 10 and 100 μM, respectively. All stock solutions were prepared in dimethylformamide at a concentration of 100 mM and were then diluted with the respective cell-culture medium to the appropriate concentrations. After another 72 h of incubation, the cellular metabolic activity was measured by employing a MTT assay. Hereby, the yellow tetrazolium salt is converted to a purple formazan salt by the functioning mitochondria. These purple crystals are then dissolved in DMSO and can be quantified via absorption measurements at 570 and 420 nm. The optical density of the particular medium was subtracted in order to exclude the unspecific staining caused by the FCS-containing medium. The values were calculated with Excel 2019 (Microsoft, Redmond, WA, USA) using nonlinear regression and the decal logarithm of the inhibitor versus variable slope equation, while the top constraint was set to 100%.

[2] = tested on: HT-29 colon carcinoma cell line; test: MTT metabolic activity (cytotoxicity) assay, HT-29; assay type: cell-based; details: 72 h incubation
Protocol: as §1, §2, §3

[3] = tested on: MDA-MB-231 breast cancer cell line; test: MTT metabolic activity (cytotoxicity) assay, MDA-MB-231; assay type: cell-based; details: for metabolic activity (residual) on MDA-MB-231: 25 μM, without compounds set at 100%; for IC50: MTT, 72 h incubation
Protocol: as §1, §2, §3

[4] = tested on: A2780cis ovarian carcinoma cell line (cisplatin-resistant); test: MTT metabolic activity (cytotoxicity) assay, A2780cis; assay type: cell-based; details: for metabolic activity (residual) on A2780cis: 25 μM, without compounds set at 100%; for IC50: MTT, 72 h incubation
Protocol: as §1, §2, §3

human recombinant COX-1 = target: T1, human recombinant COX-1 (Homo sapiens, UniProt P23219); test: COX-1 inhibition, enzyme immunoassay (COX Inhibitor Screening Assay); assay type: biochemical; details: 2 min incubation
T1 construct: purchased Cayman Chemicals
T1 sequence (P23219 24-599): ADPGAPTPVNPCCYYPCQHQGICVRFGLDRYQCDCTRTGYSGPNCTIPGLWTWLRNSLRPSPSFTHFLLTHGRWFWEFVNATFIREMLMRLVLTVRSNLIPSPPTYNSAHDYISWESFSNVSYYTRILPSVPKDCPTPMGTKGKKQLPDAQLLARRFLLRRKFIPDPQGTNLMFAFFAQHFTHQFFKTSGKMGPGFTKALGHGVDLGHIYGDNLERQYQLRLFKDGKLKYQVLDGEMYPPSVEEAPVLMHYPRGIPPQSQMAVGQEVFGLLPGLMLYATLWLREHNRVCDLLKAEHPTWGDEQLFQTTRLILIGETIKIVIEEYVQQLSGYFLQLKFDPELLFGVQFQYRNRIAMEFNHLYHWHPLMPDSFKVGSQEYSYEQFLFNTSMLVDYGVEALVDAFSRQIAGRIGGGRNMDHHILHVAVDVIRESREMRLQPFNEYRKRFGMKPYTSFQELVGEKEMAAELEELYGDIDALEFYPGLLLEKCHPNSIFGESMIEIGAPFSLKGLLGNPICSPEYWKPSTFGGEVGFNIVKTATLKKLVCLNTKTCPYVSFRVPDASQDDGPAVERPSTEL
Protocol: The incubation time of the compounds with the respective isoenzymes was exactly 2 min. The results are presented as the mean ± SD of three independent experiments with two replicates of each experiment.

human recombinant COX-2 = target: T2, human recombinant COX-2 (Homo sapiens, UniProt P35354); test: COX-2 inhibition, enzyme immunoassay (COX Inhibitor Screening Assay); assay type: biochemical; details: 2 min incubation
T2 construct: purchased Cayman Chemicals
T2 sequence (P35354 18-604): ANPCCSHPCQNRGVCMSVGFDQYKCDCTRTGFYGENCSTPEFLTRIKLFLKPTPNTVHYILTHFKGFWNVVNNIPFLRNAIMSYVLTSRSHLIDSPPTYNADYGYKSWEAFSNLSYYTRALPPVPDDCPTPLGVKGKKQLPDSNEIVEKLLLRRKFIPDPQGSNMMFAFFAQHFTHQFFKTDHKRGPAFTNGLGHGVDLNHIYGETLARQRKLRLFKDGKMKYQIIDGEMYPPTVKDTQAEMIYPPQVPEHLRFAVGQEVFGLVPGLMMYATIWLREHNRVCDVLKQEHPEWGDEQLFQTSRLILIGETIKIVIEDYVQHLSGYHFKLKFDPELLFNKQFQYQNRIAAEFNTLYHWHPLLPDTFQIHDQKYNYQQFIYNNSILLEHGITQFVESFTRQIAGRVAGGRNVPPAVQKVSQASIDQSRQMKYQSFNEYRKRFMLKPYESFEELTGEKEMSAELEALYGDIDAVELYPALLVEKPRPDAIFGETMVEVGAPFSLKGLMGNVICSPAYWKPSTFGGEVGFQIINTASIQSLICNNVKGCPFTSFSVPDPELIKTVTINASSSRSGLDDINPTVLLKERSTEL
Protocol: Metal complexes containing an ASA moiety have been reported as inhibitors for COX-1/-2 previously.[4],[14],[40]−[44] […] Hereby, the isolated enzymes were treated with final concentrations of 10 and 25 μM of substances 1, 4, 5, and 6.
Inhibition of the isolated human recombinant COX-1 and COX-2 isoenzymes by the platinum complexes (10 and 25 μM) was evaluated using an enzyme immunoassay (EIA) (COX Inhibitor Screening Assay, Cayman Chemicals, Ann Arbor, Mi, USA) following the manufacturer’s protocol. The incubation time of the compounds with the respective isoenzymes was exactly 2 min. The results are presented as the mean ± SD of three independent experiments with two replicates of each experiment. The untreated control was set at 0% inhibition of the COX activity.

[5] = cited from earlier work
[6] = Stability in aqueous solution followed by capillary electrophoresis; assay type: physicochemical; details: for half-life time (τ1/2) in water: samples at 37 °C
Protocol: The stability of complexes 1–4 was tested in an aqueous solution, to investigate how the different ways of amino acid coordination impacts aqueous degradation (see Table 4). The stability of complex 5 was previously measured in a 50% methanolic solution.[4]
(§4) A solution of sodium tetraborate (final borate concentration of 50 mM) and sodium dodecyl sulfate (100 mM) was used as a background electrolyte (BGE). The pH of the BGE was adjusted to 9.3 by titration with 1 M NaOH. Every new capillary was rinsed with 1 M NaOH (45 min), water (45 min), and BGE (45 min) before the first use. The capillary was kept on a constant temperature of 25 °C, whereas the sample carousel was temperature-controlled at 37 °C. Sample injection was performed in hydrodynamic mode, applying a pressure of 50 mbar for 2 s on the inlet vial. The separation voltage was set at +20 kV. If not stated differently, a wavelength of 195 nm was employed for the DAD detector. The analytic window was evaluated by using dodecaphenone as a micellar marker and methanol (HPLC grade) as an electroosmotic flow (EOF) marker. The run time required for the analysis was estimated to be 25 min. The capillary was flushed before every run with 0.1 M NaOH (3 min), water (3 min), and BGE (5 min). Every value is calculated from at least three independent measurements. The half-lives were presented as the mean ± standard deviation. All of the samples, buffers, and washing solutions were membrane-filtered (0.22 μm pore size). All samples employed for stability experiments were prepared using benzoic acid as an internal standard (IS).

[7] = Stability in concentrated trimethylglycine (TMG) aqueous solution followed by capillary electrophoresis; assay type: physicochemical; details: dissolved in 50% w/v TMG, diluted to final TMG 25%; CE at 230 nm
Text: Kadokawa et al.[35] reported that a highly concentrated solution of trimethyl glycine (TMG, also known as betaine) is able to improve the solubility of cisplatin in water without affecting the pharmacological proprieties of this drug. The mechanism behind this effect seems to lie in the hydrogen bond acceptor property of the carboxylate of TMG, which establishes hydrogen bonds with the amino groups of cisplatin. Betaine is a nontoxic compound and is highly soluble in water. On the basis of this study, we decided to test the solubility of 3 in a highly concentrated (50% w/v) TMG aqueous solution. The platinum compound was soluble enough to allow investigations with the established protocol for capillary electrophoresis. TMG has a strong absorption at low wavelengths, and therefore, a wavelength of 230 nm was chosen instead of 195 nm for recording the electropherograms with TMG.
as §4

[8] = Lipophilicity estimate from MEKC experiments (buffer/micelle partition); assay type: physicochemical; details: three independent experiments (one for 5 and 6)
Protocol: The lipophilicity of the tested compounds was estimated on the basis of MEKC experiments similar to Herbert and Dorsey[37] (see Table 7). The values estimated in this way were compared with theoretical values obtained from two different methods: for platinum complexes, a previously established method[38] was used, while for the organic ligand, the Osiris Property Explorer[39] was employed.
as §4

[9] = Solubility in water (qualitative observation); assay type: physicochemical
Protocol: Complex 1 was synthesized using the procedure reported by Fujita et al.,[20] and cubic bright-yellow crystals were obtained within hours. […] When a slightly lower concentration was used (0.4 mmol of platinum precursor instead of 0.5 mmol), keeping the amount of solvent constant, no crystallization occurred within a short time (3–4 h). However, some colorless needle-shaped crystals formed after an extended period of time (5–6 weeks). The crystals obtained from both conditions were analyzed via single-crystal X-ray diffractometry.
However, the release of olefin in an aqueous environment was detected to an extent of about 20% after 72 h. The chelating amino acid enhances the stability of complex 4 (>72 h) in comparison to compound 5 (69.6 ± 3.0 h).

half-life time (τ1/2) in TMG solution [7]	coefficient of partition between buffer and micelles (k′), average [8]	Compound	IC50 [1]	IC50 [2]	IC50 [3]	IC50 [4]	% Inhibition COX-1 (human recombinant COX-1; 10 μM)	% Inhibition COX-1 (human recombinant COX-1; 25 μM)	% Inhibition COX-2 (human recombinant COX-2; 10 μM)	% Inhibition COX-2 (human recombinant COX-2; 25 μM)	also measured
–	–	N.N.[Cl][Pt][Cl] [cisplatin, reference compound]	29 ± 4.28 µM	13.9 ± 5.16 µM	13.3 ± 0.87 µM	14.8 ± 1.23 µM	–	–	–	–	metabolic activity (residual) on MDA-MB-231 [3]: 8.71%; metabolic activity (residual) on A2780cis [4]: 4.71%
–	–	C=CCCOC(=O)c1ccccc1OC(C)=O.[Cl][Pt-]([Cl])[Cl].[K+] [compound 5, potassium {trichlorido[η^2-(but-3-en-1-yl)-2-acetoxybenzoate]platinate(II)}]	–	–	> 50 µM	> 50 µM	67.84 ± 10.57%	80.49 ± 11.10%	39.56%	63.10 ± 8.07%	half-life in 50% methanolic solution ([5]; 50% methanolic solution, previously measured): 69.6 ± 3.0 h
0.77 ± 0.08 h	3.099 ± 0.149	C=C.NCCC(=O)[O][Pt][Cl] [2b, (Ethylene,O-trans)(β-alaninato-N,O)chlorido(η^2-ethene)platinate(II)]	> 100 µM	> 100 µM	–	–	–	–	–	–	half-life time (τ1/2) in water ([6]; CE): 1.7 ± 0.2 h
12.0 ± 3.0 h	2.392 ± 0.185	C=C.NC(Cc1c[nH]cn1)C(=O)O.[Cl][Pt] [compound 3, (L-Histidinato-N,N)chlorido(η^2-ethene)platinate(II)]	> 100 µM	> 100 µM	–	–	–	–	–	–	–
–	–	C=C.[Cl-].[Cl-].[Cl-].[K+].[Pt+2] [ZS, potassium trichloro(ethylene)platinate(II), reference compound]	–	–	–	–	90.83%	–	8.30%	–	time to quantitative conversion to the trans-aquo complex after dissolution in water ([5]; water): ≤ 2 min
24.3 ± 2.6 h	0.629 ± 0.009	C=C.C[C@H](N)C(=O)[O][Pt][Cl] [1a, (Ethylene,N-trans)(L-alaninato-N,O)chlorido(η^2-ethene)platinate(II)]	> 100 µM	> 100 µM	> 50 µM	> 50 µM	43.67 ± 3.87%	73.82 ± 5.60%	27.23%	52.36 ± 4.02%	half-life time (τ1/2) in water ([6]; CE): >72 h; solubility in water (in words) [9]: moderately soluble in water
–	–	CC(=O)Oc1ccccc1C(=O)O [ASA, acetylsalicylic acid, reference compound]	–	–	–	–	–	–	–	–	inhibition at 10 µM (human recombinant COX-1; 10 μM): 17.3%; inhibition at 10 µM (human recombinant COX-2; 10 μM): 9.33%
–	–	C=CCCOC(=O)c1ccccc1OC(C)=O [compound 6, but-3-en-1-yl 2-acetoxybenzoate]	–	–	–	–	–	–	–	–	IC50 ([3]; Homo sapiens, MDA-MB-231): > 50 µM; IC50 ([4]; A2780cis): > 50 µM; inhibition at 10 µM (human recombinant COX-1; 10 μM): 23.7 ± 9.86%; inhibition at 25 µM (human recombinant COX-1; 25 μM): 16.4 ± 8.64%; inhibition at 10 µM (human recombinant COX-2; 10 μM): 15.7 ± 14.8%; inhibition at 25 µM (human recombinant COX-2; 25 μM): 16.9 ± 17.2%

Compound	half-life time (τ1/2) in TMG solution [7]	coefficient of partition between buffer and micelles (k′), average [8]	IC50 [1]	IC50 [2]	IC50 [3]	IC50 [4]	% Inhibition COX-1 (human recombinant COX-1; 10 μM)	% Inhibition COX-1 (human recombinant COX-1; 25 μM)	% Inhibition COX-2 (human recombinant COX-2; 10 μM)	% Inhibition COX-2 (human recombinant COX-2; 25 μM)	also measured
(Ethylene,N-trans)(L-alaninato-N,O)chlorido(η^2-(but-3-en-1-yl)-2-acetoxybenzoate)platinate(II) [compound 4]	>72 h	3.383 ± 0.016	22.5 ± 3.23 µM	20.63 ± 0.11 µM	15.4 ± 0.74 µM	22.5 ± 0.97 µM	56.51 ± 0.72%	65.95 ± 4.01%	20.04%	60.50 ± 7.63%	half-life time (τ1/2) in aqueous environment, 50% methanol solution ([6]; 50% methanol solution (footnote a of Table 4), CE): >72 ^a h; release of olefin in aqueous environment ([6]; after 72 h): about 20%; metabolic activity (residual) on MDA-MB-231 [3]: 7.71%; metabolic activity (residual) on A2780cis [4]: 33.13%; solubility in water (in words) [9]: better solubility in water
